Measured values reported in patent publication US9573978B2, “Cyclosporin derivatives for the treatment and prevention of a viral infection” (priority 2010, dated 2017).
Read-outs that look alike come from different tables or passages of the source. Starred links: 1 amine or outer side, 2 acyl side, 3 side chain; linkers in the order of their positions; H or OH if unused. Non-standard residues stand in square brackets, D forms with d. Residues, ends and D or L forms follow the SMILES beside them. ξ: configuration not given here. NMe(dihydroBmt) = CCCC[C@@H](C)[C@@H](O)[C@H](NC)C(=O)O; MeBmt = C/C=C/C[C@@H](C)[C@@H](O)[C@H](NC)C(=O)O; X2 = CN([C@H](SCCCN1CCOCC1)C(=O)[*:2])[*:1]; NMeLeu(4-OMe) = CN[C@@H](CC(C)(C)OC)C(=O)O; X4 = CCN(CC)CCS[C@@H](C(=O)[*:2])N(C)[*:1]; X1 = CCN(CC)CCS[C@H](C(=O)[*:2])N(C)[*:1]; X5 = CC=CCC(C)C(O)C(C(=O)[*:2])N(C)[*:1]; X7 = C=CCOC(C)(C)CC(C(=O)[*:2])N(C)[*:1]; X6 = CN(C(SCCCN1CCOCC1)C(=O)[*:2])[*:1]; NMeIle(3ξ) = CCC(C)[C@H](NC)C(=O)O; NMeL = CN[CH](CC(C)C)C(=O)O; NMeV = CN[CH](C(=O)O)C(C)C; Abu = CC[CH](N)C(=O)O

System: HCV replicon in Huh7 human hepatoma cell line ET (luc-ubi-neo/ET)
Assay: HCV subgenomic replicon assay, luciferase end point, cell line ET (luc-ubi-neo/ET)
Type: cell-based, Hepatitis C virus
Procedure: The anti-HCV activity of cyclosporine derivatives were evaluated in the HCV subgenomic replicon assay. The assay use the cell line ET (luc-ubi-neo/ET), which is a Huh7 human hepatoma cell line harboring an HCV replicon with a stable luciferase (Luc) reporter. HCV RNA replication was assessed by quantifying HCV replicon-derived luciferase activity. The antiviral activity of cyclosporine analogs were evaluated after drug treatment, the EC 50 and EC 90 were determined in subsequent assessments by using the luciferase end point (Krieger, N., et al., 2001, J. Virol. 75, 4614-4624; Pietschmann, T., et al., 2002, J. Virol. 76, 4008-4021; each of which is incorporated herein by reference).

[1] = Hepatitis C virus, Huh-7, read-out: Antiviral activity IC50
[2] = HCV replicon-derived luciferase activity, read-out: Antiviral activity IC50

Row | Compound | IC50 [1] [nM] | IC50 [2] [nM]
1 | C/C=C/C[C@@H](C)[C@@H](O)[C@H]1C(=O)N[C@@H](CC)C(=O)N(C)[C@H](SCCCN2CCOCC2)C(=O)N(C)[C@@H](CC(C)(C)O)C(=O)N[C@@H](C(C)C)C(=O)N(C)[C@@H](CC(C)C)C(=O)N[C@@H](C)C(=O)N[C@H](C)C(=O)N(C)[C@@H](CC(C)C)C(=O)N(C)[C@@H](CC(C)C)C(=O)N(C)[C@@H](C(C)C)C(=O)N1C [Example 1, [(R)-3-(N-Morphlino)propylthio-Sar]-3-[(γ-Hydroxy)-NMeLeu]-4-cyclosporin] | 40 | 
2 | C/C=C/C[C@@H](C)[C@@H](O)[C@H]1C(=O)N[C@@H](CC)C(=O)N(C)[C@H](SCCCN(CC)CC)C(=O)N(C)[C@@H](CC(C)(C)O)C(=O)N[C@@H](C(C)C)C(=O)N(C)[C@@H](CC(C)C)C(=O)N[C@@H](C)C(=O)N[C@H](C)C(=O)N(C)[C@@H](CC(C)C)C(=O)N(C)[C@@H](CC(C)C)C(=O)N(C)[C@@H](C(C)C)C(=O)N1C [Example 2, [(R)-3-(N,N-Diethylamino)propylthio-Sar]-3-[(γ-Hydroxy)-NMeLeu]-4-cyclosporin] | 70 | 
3 | CCCC[C@@H](C)[C@@H](O)[C@H]1C(=O)N[C@@H](CC)C(=O)N(C)[C@H](SCCCN2CCOCC2)C(=O)N(C)[C@@H](CC(C)(C)OC)C(=O)N[C@@H](C(C)C)C(=O)N(C)[C@@H](CC(C)C)C(=O)N[C@@H](C)C(=O)N[C@H](C)C(=O)N(C)[C@@H](CC(C)C)C(=O)N(C)[C@@H](CC(C)C)C(=O)N(C)[C@@H](C(C)C)C(=O)N1C [Example 10, [(R)-3-(N-Morphlino)propylthio-Sar]-3-[(γ-Methoxy)-NMeLeu]-4-Dihydrocyclosporin] (cyclo(A[dA][NMeL][NMeL][NMeV][NMe(dihydroBmt)][Abu][X2][NMeLeu(4-OMe)]V[NMeL])) | 90 | 
4 | C/C=C/C[C@@H](C)[C@@H](O)[C@H]1C(=O)N[C@@H](CC)C(=O)N(C)[C@H](SCCCN2CCOCC2)C(=O)N(C)[C@@H](CC(C)(C)OC)C(=O)N[C@@H](C(C)C)C(=O)N(C)[C@@H](CC(C)C)C(=O)N[C@@H](C)C(=O)N[C@H](C)C(=O)N(C)[C@@H](CC(C)C)C(=O)N(C)[C@@H](CC(C)C)C(=O)N(C)[C@@H](C(C)C)C(=O)N1C [Example 12, [(R)-3-(N-Morphlino)propylthio-Sar]-3-[(γ-Methoxy)-NMeLeu]-4-cyclosporin] | 60 | 
5 | C=CCOC(C)(C)CC1C(=O)NC(C(C)C)C(=O)N(C)C(CC(C)C)C(=O)NC(C)C(=O)NC(C)C(=O)N(C)C(CC(C)C)C(=O)N(C)C(CC(C)C)C(=O)N(C)C(C(C)C)C(=O)N(C)C(C(O)C(C)CC=CC)C(=O)NC(CC)C(=O)N(C)C(SCCCN2CCOCC2)C(=O)N1C [Example 26, [(R)-3-(N-Morphlino)propylthio-Sar]-3-[(γ-Allyloxy)-NMeLeu]-4-cyclosporin] (cyclo([X5][Abu][X6][X7]V[NMeL]AA[NMeL][NMeL][NMeV]); configuration not given here) |  | 80
6 | C/C=C/C[C@@H](C)[C@@H](O)[C@H]1C(=O)N[C@@H](CC)C(=O)N(C)CC(=O)N(C)[C@@H](C(C)C)C(=O)N[C@@H](C(C)C)C(=O)N(C)[C@@H](CC(C)C)C(=O)N[C@@H](C)C(=O)N[C@H](C)C(=O)N(C)[C@@H](CC(C)C)C(=O)N(C)[C@@H](CC(C)C)C(=O)N(C)[C@@H](C(C)C)C(=O)N1C [SDZ-220-384, N-MeVal-4-Cyclosporin] |  | 170
7 | C/C=C/C[C@@H](C)[C@@H](O)[C@H]1C(=O)N[C@@H](CC)C(=O)N(C)CC(=O)N(C)[C@@H]([C@@H](C)CC)C(=O)N[C@@H](C(C)C)C(=O)N(C)[C@@H](CC(C)C)C(=O)N[C@@H](C)C(=O)N[C@H](C)C(=O)N(C)[C@@H](CC(C)C)C(=O)N(C)[C@@H](CC(C)C)C(=O)N(C)[C@@H](C(C)C)C(=O)N1C [SDZ-NIM-811, N-MeIle-4-Cyclosporin] | 150 | 
8 | C/C=C/C[C@@H](C)[C@@H](O)[C@H]1C(=O)N[C@@H](CC)C(=O)N(C)[C@H](SCCN(CC)CC)C(=O)N(C)[C@@H](C(C)CC)C(=O)N[C@@H](C(C)C)C(=O)N(C)[C@@H](CC(C)C)C(=O)N[C@@H](C)C(=O)N[C@H](C)C(=O)N(C)[C@@H](CC(C)C)C(=O)N(C)[C@@H](CC(C)C)C(=O)N(C)[C@@H](C(C)C)C(=O)N1C (stereo partly drawn) [[(R)-2-(N,N-Diethylamino)ethylthio-Sar]-3-[NMeIle]-4-cyclosporin] (cyclo(A[dA][NMeL][NMeL][NMeV][MeBmt][Abu][X1][NMeIle(3ξ)]V[NMeL])) | 40 | 
9 | C/C=C/C[C@@H](C)[C@@H](O)[C@H]1C(=O)N[C@@H](CC)C(=O)N(C)[C@H](SCCN(CC)CC)C(=O)N(C)[C@@H](C(C)C)C(=O)N[C@@H](C(C)C)C(=O)N(C)[C@@H](CC(C)C)C(=O)N[C@@H](C)C(=O)N[C@H](C)C(=O)N(C)[C@@H](CC(C)C)C(=O)N(C)[C@@H](CC(C)C)C(=O)N(C)[C@@H](C(C)C)C(=O)N1C [[(R)-2-(N,N-Diethylamino)ethylthio-Sar]-3-[NMeVal]-4-cyclosporin] (cyclo(A[dA][NMeL][NMeL][NMeV][MeBmt][Abu][X1][NMeV]V[NMeL])) |  | 40
10 | C/C=C/C[C@@H](C)[C@@H](O)[C@H]1C(=O)N[C@@H](CC)C(=O)N(C)[C@@H](SCCN(CC)CC)C(=O)N(C)[C@@H](C(C)C)C(=O)N[C@@H](C(C)C)C(=O)N(C)[C@@H](CC(C)C)C(=O)N[C@@H](C)C(=O)N[C@H](C)C(=O)N(C)[C@@H](CC(C)C)C(=O)N(C)[C@@H](CC(C)C)C(=O)N(C)[C@@H](C(C)C)C(=O)N1C [[(S)-2-(N,N-Diethylamino)ethylthio-Sar]-3-[NMeVal]-4-cyclosporin] (cyclo(A[dA][NMeL][NMeL][NMeV][MeBmt][Abu][X4][NMeV]V[NMeL])) |  | 3660
11 | [(S)-2-(N,N-Diethylamino)ethylthio-Sar]-3-[NMeIle]-4-cyclosporin |  | 1870
